Data reported in article PMC5218480 (PLoS ONE, 2017).

System: MV-4-11 cells
Test: Gene expression microarray analysis (Affymetrix PrimeView) and GSEA
Type: cell-based, human
Parameters: RFU PODN (11730768_x_at) / Fold change /veh PODN (11730768_x_at) / RFU LINC00158 (11744669_a_at) / Fold change /veh LINC00158 (11744669_a_at) / RFU DUSP10 (11751237_a_at) / Fold change /veh DUSP10 (11751237_a_at) / RFU ID3 (11757404_x_at) / Fold change /veh ID3 (11757404_x_at) / RFU PLEKHG5 (11737974_s_at) / Fold change /veh PLEKHG5 (11737974_s_at) / RFU LRRC4B (11730491_at) / Fold change /veh LRRC4B (11730491_at) / RFU GIMAP4 (11747438_a_at) / Fold change /veh GIMAP4 (11747438_a_at) / RFU KRT8 (11758183_x_at) / Fold change /veh KRT8 (11758183_x_at) / RFU CNN1 (11734310_a_at) / Fold change /veh CNN1 (11734310_a_at) / RFU VPS37D (11726825_at) / Fold change /veh VPS37D (11726825_at) / RFU C10orf10 (11716522_x_at) / Fold change /veh C10orf10 (11716522_x_at) / RFU KIR2DL2 /// KIR2DL4 /// KIR2DL5A /// KIR2DL5B /// KIR2DS1 /// KIR2DS2 /// KIR2DS3 /// KIR2DS4 /// KIR3DL3 /// KIR3DL3 /// KIR3DS1 (11738374_at) / Fold change /veh KIR2DL2 /// KIR2DL4 /// KIR2DL5A /// KIR2DL5B /// KIR2DS1 /// KIR2DS2 /// KIR2DS3 /// KIR2DS4 /// KIR3DL3 /// KIR3DL3 /// KIR3DS1 (11738374_at) / RFU C1QL1 (11718748_at) / Fold change /veh C1QL1 (11718748_at) / RFU TMPRSS4 (11747572_a_at) / Fold change /veh TMPRSS4 (11747572_a_at) / RFU HAMP (11756126_x_at) / Fold change /veh HAMP (11756126_x_at) / RFU RNFT2 (11725882_a_at) / Fold change /veh RNFT2 (11725882_a_at) / RFU NR4A2 (11747474_a_at) / Fold change /veh NR4A2 (11747474_a_at) / RFU ABCC12 (11746883_a_at) / Fold change /veh ABCC12 (11746883_a_at) / RFU TMEM136 (11760407_x_at) / Fold change /veh TMEM136 (11760407_x_at) / RFU CLDN22 /// WWC2 (11732394_at) / Fold change /veh CLDN22 /// WWC2 (11732394_at) / RFU HLA-DPB1 (11760878_x_at) / Fold change /veh HLA-DPB1 (11760878_x_at) / RFU SPINT1 (11716480_a_at) / Fold change /veh SPINT1 (11716480_a_at) / RFU GAP43 (11754022_s_at) / Fold change /veh GAP43 (11754022_s_at) / RFU A4GNT (11735810_at) / Fold change /veh A4GNT (11735810_at) / RFU PRB3 (11715151_x_at) / Fold change /veh PRB3 (11715151_x_at) / RFU TUBB4B (11761932_at) / Fold change /veh TUBB4B (11761932_at) / RFU CAPN14 (11732068_a_at) / Fold change /veh CAPN14 (11732068_a_at) / RFU TMCC2 (11721928_a_at) / Fold change /veh TMCC2 (11721928_a_at) / RFU IRGQ (11745062_a_at) / Fold change /veh IRGQ (11745062_a_at) / RFU FAM174B (11720279_a_at) / Fold change /veh FAM174B (11720279_a_at) / RFU TMPRSS4 (11748680_a_at) / Fold change /veh TMPRSS4 (11748680_a_at) / RFU FAM212B (11763350_a_at) / Fold change /veh FAM212B (11763350_a_at) / RFU PLEKHG5 (11743358_a_at) / Fold change /veh PLEKHG5 (11743358_a_at) / RFU ZSCAN30 (11745921_a_at) / Fold change /veh ZSCAN30 (11745921_a_at) / RFU CMKLR1 (11741424_a_at) / Fold change /veh CMKLR1 (11741424_a_at) / RFU LOC101060620 /// MAPK8IP1 (11723275_at) / Fold change /veh LOC101060620 /// MAPK8IP1 (11723275_at) / RFU SPTSSB (11747773_x_at) / Fold change /veh SPTSSB (11747773_x_at) / RFU PRSS12 (11739890_at) / Fold change /veh PRSS12 (11739890_at) / RFU BIN1 (11741810_x_at) / Fold change /veh BIN1 (11741810_x_at) / RFU WNT11 (11732464_a_at) / Fold change /veh WNT11 (11732464_a_at) / RFU C10orf10 (11716521_a_at) / Fold change /veh C10orf10 (11716521_a_at) / RFU C5orf56 (11738089_at) / Fold change /veh C5orf56 (11738089_at) / RFU CYB561 (11721691_x_at) / Fold change /veh CYB561 (11721691_x_at) / RFU ANKRD19P (11752326_a_at) / Fold change /veh ANKRD19P (11752326_a_at) / RFU OR2T12 /// OR2T33 /// OR2T8 (11738714_s_at) / Fold change /veh OR2T12 /// OR2T33 /// OR2T8 (11738714_s_at) / RFU VCAN (11748164_a_at) / Fold change /veh VCAN (11748164_a_at) / RFU JSRP1 (11732532_at) / Fold change /veh JSRP1 (11732532_at) / RFU KRTAP10-11 (11738290_x_at) / Fold change /veh KRTAP10-11 (11738290_x_at) / RFU MYO3A (11730013_a_at) / Fold change /veh MYO3A (11730013_a_at) / RFU EBF3 (11725865_a_at) / Fold change /veh EBF3 (11725865_a_at) / RFU CAMK2N1 (11719241_x_at) / Fold change /veh CAMK2N1 (11719241_x_at) / RFU C5orf56 (11738088_a_at) / Fold change /veh C5orf56 (11738088_a_at) / RFU OLFML3 (11715873_a_at) / Fold change /veh OLFML3 (11715873_a_at) / RFU LOC100653217 /// NTM (11731650_a_at) / Fold change /veh LOC100653217 /// NTM (11731650_a_at) / RFU MAPK11 (11762145_a_at) / Fold change /veh MAPK11 (11762145_a_at) / RFU FIZ1 (11724087_x_at) / Fold change /veh FIZ1 (11724087_x_at) / RFU OASL (11726364_x_at) / Fold change /veh OASL (11726364_x_at) / RFU SOX15 (11748057_x_at) / Fold change /veh SOX15 (11748057_x_at) / RFU CD79A (11719716_a_at) / Fold change /veh CD79A (11719716_a_at) / RFU HIST1H1D (11736915_at) / Fold change /veh HIST1H1D (11736915_at) / RFU CASKIN2 (11723855_a_at) / Fold change /veh CASKIN2 (11723855_a_at) / RFU LOC730098 (11760151_x_at) / Fold change /veh LOC730098 (11760151_x_at) / RFU OR4N2 (11742367_at) / Fold change /veh OR4N2 (11742367_at) / RFU PRRT2 (11749266_a_at) / Fold change /veh PRRT2 (11749266_a_at) / RFU SNX32 (11753110_a_at) / Fold change /veh SNX32 (11753110_a_at) / RFU CDHR5 (11726645_a_at) / Fold change /veh CDHR5 (11726645_a_at) / RFU RCAN1 (11760418_a_at) / Fold change /veh RCAN1 (11760418_a_at) / RFU FAM167A (11723789_a_at) / Fold change /veh FAM167A (11723789_a_at) / RFU FAM26E (11764081_at) / Fold change /veh FAM26E (11764081_at) / RFU ISYNA1 (11749810_s_at) / Fold change /veh ISYNA1 (11749810_s_at) / RFU ACY1 (11761880_at) / Fold change /veh ACY1 (11761880_at) / RFU 11764098_at / Fold change /veh 11764098_at / RFU SAMD14 (11745864_x_at) / Fold change /veh SAMD14 (11745864_x_at) / RFU NPB (11741838_a_at) / Fold change /veh NPB (11741838_a_at) / RFU TMPRSS6 (11731388_a_at) / Fold change /veh TMPRSS6 (11731388_a_at) / RFU KRTAP10-2 (11738614_at) / Fold change /veh KRTAP10-2 (11738614_at) / RFU ARHGAP8 /// PRR5-ARHGAP8 (11727945_x_at) / Fold change /veh ARHGAP8 /// PRR5-ARHGAP8 (11727945_x_at) / RFU KRTAP5-7 /// NADSYN1 (11734609_at) / Fold change /veh KRTAP5-7 /// NADSYN1 (11734609_at) / RFU RASL12 (11751679_a_at) / Fold change /veh RASL12 (11751679_a_at) / RFU CDKN2B (11736163_a_at) / Fold change /veh CDKN2B (11736163_a_at) / RFU PRF1 (11729649_at) / Fold change /veh PRF1 (11729649_at) / RFU, ZNF638 /// ZNF638-IT1 / Fold change vs veh, ZNF638 /// ZNF638-IT1 / RFU, PANK3 / Fold change vs veh, PANK3 / RFU, SH3YL1 / Fold change vs veh, SH3YL1 / RFU, ZEB2 / Fold change vs veh, ZEB2 / RFU, NRIP1 / Fold change vs veh, NRIP1 / RFU, PTTG1IP / Fold change vs veh, PTTG1IP / RFU, CAPN2 / Fold change vs veh, CAPN2 / RFU, MED14 / Fold change vs veh, MED14 / RFU, SNORA58 / Fold change vs veh, SNORA58 / RFU, C1orf63 / Fold change vs veh, C1orf63 / RFU, LRRFIP1 / Fold change vs veh, LRRFIP1 / RFU, NDUFAF7 / Fold change vs veh, NDUFAF7 / RFU, SLC12A2 / Fold change vs veh, SLC12A2 / RFU, IBTK / Fold change vs veh, IBTK / RFU, ESF1 / Fold change vs veh, ESF1 / Fold change vs veh, TMEM50B / RFU, TAOK1 / Fold change vs veh, TAOK1 / RFU, ACBD3 / Fold change vs veh, ACBD3 / RFU, TMA16 / Fold change vs veh, TMA16 / RFU, RWDD3 / Fold change vs veh, RWDD3 / RFU, BCAT1 / Fold change vs veh, BCAT1 / RFU, EDEM3 / Fold change vs veh, EDEM3 / RFU, TMEM33 / Fold change vs veh, TMEM33 / RFU, WDR75 / Fold change vs veh, WDR75 / RFU, AHCTF1 / Fold change vs veh, AHCTF1 / RFU, TFRC / Fold change vs veh, TFRC / RFU, ZDHHC17 / Fold change vs veh, ZDHHC17 / RFU, NOM1 / Fold change vs veh, NOM1 / RFU, ARL8B / Fold change vs veh, ARL8B / RFU, ZBTB11 / Fold change vs veh, ZBTB11 / RFU, TAMM41 / Fold change vs veh, TAMM41 / RFU, KIAA1704 /// LOC100996395 / Fold change vs veh, KIAA1704 /// LOC100996395 / RFU, ING1 / Fold change vs veh, ING1 / RFU, TRMT61B / Fold change vs veh, TRMT61B / RFU, FUBP3 / Fold change vs veh, FUBP3 / RFU, TP53 / Fold change vs veh, TP53 / RFU, TNKS2 / Fold change vs veh, TNKS2 / RFU, ZFP14 / Fold change vs veh, ZFP14 / RFU, ACTR2 / Fold change vs veh, ACTR2 / RFU, PPP3R1 / Fold change vs veh, PPP3R1 / RFU, PIK3R1 / Fold change vs veh, PIK3R1 / RFU, HNRNPA1 / Fold change vs veh, HNRNPA1 / RFU, RNF170 / Fold change vs veh, RNF170 / RFU, ZNF28 / Fold change vs veh, ZNF28 / RFU, RNGTT / Fold change vs veh, RNGTT / RFU, OGT / Fold change vs veh, OGT / RFU, BRD1 / Fold change vs veh, BRD1 / RFU, MARS / Fold change vs veh, MARS / RFU, ZNF655 / Fold change vs veh, ZNF655 / RFU, FAHD1 / Fold change vs veh, FAHD1 / RFU, BDP1 / Fold change vs veh, BDP1 / RFU, LRRCC1 / Fold change vs veh, LRRCC1 / RFU, ARID1A / Fold change vs veh, ARID1A / RFU, ZNF146 / Fold change vs veh, ZNF146 / RFU, ZNF330 / Fold change vs veh, ZNF330 / RFU, GPN3 / Fold change vs veh, GPN3 / RFU, C9orf123 / Fold change vs veh, C9orf123 / RFU, N4BP2L2 / Fold change vs veh, N4BP2L2 / RFU, ARFIP1 / Fold change vs veh, ARFIP1 / RFU, FAM179B / Fold change vs veh, FAM179B / RFU, BCL10 / Fold change vs veh, BCL10 / RFU, UHRF1BP1L / Fold change vs veh, UHRF1BP1L / RFU, BET1 / Fold change vs veh, BET1 / RFU, CNOT2 / Fold change vs veh, CNOT2 / RFU, ZNF268 / Fold change vs veh, ZNF268 / Fold change vs veh, ZNF507 / RFU, DGCR2 / Fold change vs veh, DGCR2 / RFU, WDSUB1 / Fold change vs veh, WDSUB1 / Fold change vs veh, HSP90B1 /// MIR3652 / RFU, ADSS / Fold change vs veh, ADSS / RFU, GK / Fold change vs veh, GK / RFU, ZNF148 / Fold change vs veh, ZNF148 / RFU, TAF9 / Fold change vs veh, TAF9 / RFU, SLC1A5 / Fold change vs veh, SLC1A5 / RFU, SLMO2 / Fold change vs veh, SLMO2 / RFU, ABCC4 / Fold change vs veh, ABCC4 / RFU, LOC101060439 /// RAP1B / Fold change vs veh, LOC101060439 /// RAP1B / RFU, RFX7 / Fold change vs veh, RFX7 / RFU, GTPBP10 / Fold change vs veh, GTPBP10 / RFU, CNEP1R1 / Fold change vs veh, CNEP1R1 / RFU, BIVM-ERCC5 /// ERCC5 / Fold change vs veh, BIVM-ERCC5 /// ERCC5 / RFU, ILF3 / Fold change vs veh, ILF3 / RFU 11762660_at / Fold change /veh 11762660_at / RFU VCAN (11757783_s_at) / Fold change /veh VCAN (11757783_s_at) / RFU DDX43 (11728927_at) / Fold change /veh DDX43 (11728927_at) / RFU KRT8 (11758188_x_at) / Fold change /veh KRT8 (11758188_x_at) / RFU NKD1 (11759106_at) / Fold change /veh NKD1 (11759106_at) / RFU SRD5A1 (11742802_a_at) / Fold change /veh SRD5A1 (11742802_a_at) / RFU TPSAB1 /// TPSB2 (11721975_s_at) / Fold change /veh TPSAB1 /// TPSB2 (11721975_s_at) / RFU GSTM3 (11746129_a_at) / Fold change /veh GSTM3 (11746129_a_at) / RFU IL23R (11737362_x_at) / Fold change /veh IL23R (11737362_x_at) / RFU TMEM51 (11727254_a_at) / Fold change /veh TMEM51 (11727254_a_at) / RFU PIWIL2 (11732686_x_at) / Fold change /veh PIWIL2 (11732686_x_at) / RFU ORM1 (11744905_x_at) / Fold change /veh ORM1 (11744905_x_at) / RFU CCDC152 (11743942_at) / Fold change /veh CCDC152 (11743942_at) / RFU ECM1 (11717891_a_at) / Fold change /veh ECM1 (11717891_a_at) / RFU IL23R (11748794_a_at) / Fold change /veh IL23R (11748794_a_at) / RFU TNFAIP8L3 (11732012_x_at) / Fold change /veh TNFAIP8L3 (11732012_x_at) / RFU MBOAT4 (11741988_at) / Fold change /veh MBOAT4 (11741988_at) / RFU 11764193_at / Fold change /veh 11764193_at / RFU TMEM53 (11763286_at) / Fold change /veh TMEM53 (11763286_at) / RFU MAGEB2 (11727129_at) / Fold change /veh MAGEB2 (11727129_at) / RFU TMEM200A (11744735_a_at) / Fold change /veh TMEM200A (11744735_a_at) / RFU CCDC152 (11751479_a_at) / Fold change /veh CCDC152 (11751479_a_at) / RFU FAM211A (11726209_a_at) / Fold change /veh FAM211A (11726209_a_at) / RFU RGS16 (11746705_a_at) / Fold change /veh RGS16 (11746705_a_at) / RFU VCAN (11755009_s_at) / Fold change /veh VCAN (11755009_s_at) / RFU RHOB (11743442_s_at) / Fold change /veh RHOB (11743442_s_at) / RFU RGS16 (11720943_a_at) / Fold change /veh RGS16 (11720943_a_at) / RFU RGS16 (11720944_at) / Fold change /veh RGS16 (11720944_at) / RFU, VPS4B / Fold change vs veh, VPS4B / RFU, CREB1 / Fold change vs veh, CREB1 / RFU, DNAJC13 / Fold change vs veh, DNAJC13 / RFU, GNAQ / Fold change vs veh, GNAQ / RFU, CDK5R1 / Fold change vs veh, CDK5R1 / RFU, ZRANB3 / Fold change vs veh, ZRANB3 / RFU, CUL4A / Fold change vs veh, CUL4A / RFU, CCNY / Fold change vs veh, CCNY / RFU, UFL1 / Fold change vs veh, UFL1 / RFU, COG3 / Fold change vs veh, COG3 / RFU, DIAPH2 / Fold change vs veh, DIAPH2 / RFU, SKA2 / Fold change vs veh, SKA2 / RFU, AFF3 / Fold change vs veh, AFF3 / RFU, LMF1 / Fold change vs veh, LMF1 / RFU, IPO11 / Fold change vs veh, IPO11 / RFU, DFFB / Fold change vs veh, DFFB / RFU, FOXP1 / Fold change vs veh, FOXP1 / RFU, CARD8 / Fold change vs veh, CARD8 / RFU, STRN3 / Fold change vs veh, STRN3 / RFU, ADK / Fold change vs veh, ADK / RFU, RASSF2 / Fold change vs veh, RASSF2 / RFU, WIPF1 / Fold change vs veh, WIPF1 / RFU, LARP1B / Fold change vs veh, LARP1B / RFU, RASA1 / Fold change vs veh, RASA1 / RFU, RB1 / Fold change vs veh, RB1 / RFU, PPFIA1 / Fold change vs veh, PPFIA1 / RFU, MAT2A / Fold change vs veh, MAT2A / RFU, CCT5 / Fold change vs veh, CCT5 / RFU, WDR92 / Fold change vs veh, WDR92 / RFU, CUX1 / Fold change vs veh, CUX1 / RFU, TTC7A / Fold change vs veh, TTC7A / RFU, TMEM135 / Fold change vs veh, TMEM135 / RFU, DEPTOR / Fold change vs veh, DEPTOR / RFU, CPM / Fold change vs veh, CPM / RFU, DNAJB6 / Fold change vs veh, DNAJB6 / RFU, CACNA2D3 / Fold change vs veh, CACNA2D3 / RFU, DTX4 / Fold change vs veh, DTX4 / RFU, TFCP2 / Fold change vs veh, TFCP2 / RFU, GMCL1 /// GMCL1P1 / Fold change vs veh, GMCL1 /// GMCL1P1 / RFU, AEBP2 / Fold change vs veh, AEBP2 / RFU, SNHG1 /// SNORD22 /// SNORD25 /// SNORD26 /// SNORD27 /// SNORD28 /// SNORD29 /// SNORD31 / Fold change vs veh, SNHG1 /// SNORD22 /// SNORD25 /// SNORD26 /// SNORD27 /// SNORD28 /// SNORD29 /// SNORD31 / Fold change (Aza/veh), C12orf56 (ProbeSet 11735607_a_at) / Fold change (ACY-1035/veh), C12orf56 (ProbeSet 11735607_a_at) / Fold change (Aza/veh), FGFR1OP (ProbeSet 11751329_s_at) / Fold change (ACY-1035/veh), FGFR1OP (ProbeSet 11751329_s_at) / Fold change (Aza/veh), VPS36 (ProbeSet 11739960_a_at) / Fold change (ACY-1035/veh), VPS36 (ProbeSet 11739960_a_at) / RFU SYPL1 (11715823_x_at) / Fold change /veh SYPL1 (11715823_x_at) / RFU IGFBP7 (11715501_s_at) / Fold change /veh IGFBP7 (11715501_s_at) / RFU REEP3 (11722064_at) / Fold change /veh REEP3 (11722064_at) / RFU IGLL1 (11728026_x_at) / Fold change /veh IGLL1 (11728026_x_at): dose or concentration left out as unconfirmed
Conditions: ProbeSet 11758397_s_at; LIST B

For `Nc1ccc(-c2cccs2)cc1NC(=O)c1ccc2c(c1)cc(C1CC1)n2CCN1CCOCC1` [ACY-1035], the “Fold change vs veh, RNF170” value was 0.96.
